One may read the IC50 as the concentration that gives 50% inhibition. The half-life is the time in which the quantity being followed falls by half. Low values mean fast loss, high ones slow loss.

Molecules are shown by their SMILES. Read-outs that look alike come from different tables or passages of the source.

For one data set, the system named is MDA435/LCC6 cells. In words: Sulforhodamine B cytotoxicity assay, parental cells. The class given is cell-based. The note with it: Homo sapiens. A general note: The SRB assay estimates cell density from bound dye.
A further data set deals with MDA435/LCC6 MDR1 cells. In words: Sulforhodamine B cytotoxicity / MDR reversal assay, ABCB1-transfected cells. The conditions noted are these: for IC50: Homo sapiens. Format: cell-based, human.
Data set [1] in a line: Pharmacokinetic study of paclitaxel with oral type I POPs. The class given is in vivo, Sprague–Dawley rats.
Where [2] appears, read: compound at 0.4 μmol/L, MDA435/LCC6 MDR1.
Where [3] appears, read: Sprague-Dawley, rat, plasma, iv, 6 mg/kg.

In the case of `COc1cccc2c1C(=O)c1c(O)c3c(c(O)c1C2=O)C[C@@](O)(C(=O)CO)C[C@@H]3O[C@H]1C[C@H](N)[C@H](O)[C@H](C)O1` [Doxorubicin, doxorubicin], the IC50 is 76 ± 8 nM with MDA435/LCC6 cells (MDA-435/LCC6, read-out: IC50 of doxorubicin) and 695 ± 40 nM in the data set with MDA435/LCC6 MDR1 cells (read-out: IC50 of doxorubicin).

With `C/C=C/C[C@@H](C)C(=O)[C@H]1C(=O)N[C@@H](C(C)C)C(=O)N(C)CC(=O)N(C)[C@@H](CC(C)C)C(=O)N[C@@H](C(C)C)C(=O)N(C)[C@@H](CC(C)C)C(=O)N[C@@H](C)C(=O)N[C@H](C)C(=O)N(C)[C@@H](CC(C)C)C(=O)N(C)[C@@H](CC(C)C)C(=O)N(C)[C@@H](C(C)C)C(=O)N1C` [PSC833, valspodar], in the data set on MDA435/LCC6 MDR1 cells (setting [2]), the “Fold change of doxorubicin IC50 (alone/combination)” value stood at 11 and the “Fold change of paclitaxel IC50 (alone/combination)” value was 59.

As to `CC(=O)O[C@H]1C(=O)[C@@]2(C)[C@H]([C@H](OC(=O)c3ccccc3)[C@]3(O)C[C@H](OC(=O)[C@H](O)[C@@H](NC(=O)c4ccccc4)c4ccccc4)C(C)=C1C3(C)C)[C@]1(OC(C)=O)CO[C@@H]1C[C@@H]2O` [Paclitaxel, paclitaxel], the “behavior and body weight of rats” value in data set [1] (6 consecutive days of paclitaxel alone or with type I POPs mixture) is “no abnormality in behavior and no significant weight losses”. The “brain accumulation of paclitaxel” value in data set [1] (24 h after last dose, 6 consecutive days) was “no brain accumulation of paclitaxel”. Also, the half-life in data set [1] (Sprague-Dawley, rat, plasma, intravenous) is 4.2 ± 0.3 h; in data set [1] (setting [3]) it was 3.2 ± 0.7 h. In data set [1] (setting [3]), this compound gave a clearance of 91.7 mL/min/kg. Besides, the “Ctrough of paclitaxel after the last dose” value in data set [1] (paclitaxel iv 6 mg/kg/day ± type I POPs po 50 mg/kg/day for 6 consecutive days) is 15.8 ± 6.6 nM. Further, the IC50 with MDA435/LCC6 cells (MDA-435/LCC6, read-out: IC50 of paclitaxel) came out at 1.36 ± 0.14 nM; with MDA435/LCC6 MDR1 cells (read-out: IC50 of paclitaxel), 120 ± 9.44 nM.

The values above are taken from paper PMC8343194 (Acta Pharmaceutica Sinica. B, 2021).
